Format in all cases: functional
The species entered for test [1] is Rattus norvegicus. As to the kind of experiment: Evaluated for histamine releasing activity.
Test [2] is filed under the species Rattus norvegicus. As to the kind of experiment: Antiovulatory activity expressed as ratio of rats ovulated/total rats at a dose of 0.5 microg; 9/25.
The species entered for test [3] is Rattus norvegicus. Description: Antiovulatory activity expressed as ratio of rats ovulated/total rats at a dose of 1.0 ug; 0/10.
Test [4] is filed under the species Rattus norvegicus. Description: Antiovulatory activity expressed as ratio of rats ovulated/total rats at a dose of 0.5 microg; 5/8.
The species named for test [5] is Rattus norvegicus. As to the kind of experiment: Antiovulatory activity expressed as ratio of rats ovulated/total rats at a dose of 0.5 microg; 2/5.
Test [6] is filed under the species Rattus norvegicus. As to the kind of experiment: Antiovulatory activity expressed as ratio of rats ovulated/total rats at a dose of 0.25 microg; 6/10.
The species named for test [7] is Rattus norvegicus. As to the kind of experiment: Antiovulatory activity expressed as ratio of rats ovulated/total rats at a dose of 0.5 microg; 0/10.
Test [8] is filed under the species Rattus norvegicus. As to the kind of experiment: Antiovulatory activity expressed as ratio of rats ovulated/total rats at a dose of 0.5 microg; 5/6.
Test [9] is filed under the species Rattus norvegicus. Description: Antiovulatory activity expressed as ratio of rats ovulated/total rats at a dose of 0.5 microg; 6/7.
Test [10] is filed under the species Rattus norvegicus. As to the kind of experiment: Antiovulatory activity expressed as ratio of rats ovulated/total rats at a dose of 1.0 ug; 0/8.
The species entered for test [11] is Rattus norvegicus. As to the kind of experiment: Antiovulatory activity expressed as ratio of rats ovulated/total rats at a dose of 0.5 microg; 3/8.
Test [12] is filed under the species Rattus norvegicus. Description: Antiovulatory activity expressed as ratio of rats ovulated/total rats at a dose of 0.5 microg; 3/6.
Test [13] is filed under the species Rattus norvegicus. As to the kind of experiment: Antiovulatory activity expressed as ratio of rats ovulated/total rats at a dose of 0.5 microg; 4/5.
Test [14] is filed under the species Rattus norvegicus. Description: Antiovulatory activity expressed as ratio of rats ovulated/total rats at a dose of 0.25 microg; 2/12.
The species named for test [15] is Rattus norvegicus. As to the kind of experiment: Antiovulatory activity expressed as ratio of rats ovulated/total rats at a dose of 0.5 microg; 2/6.
For test [16], the species on record is Rattus norvegicus. Description: Antiovulatory activity expressed as ratio of rats ovulated/total rats at a dose of 1.0 ug; 0/6.
The species entered for test [17] is Rattus norvegicus. Description: Antiovulatory activity expressed as ratio of rats ovulated/total rats at a dose of 0.25 microg; 3/7.
The species named for test [18] is Rattus norvegicus. Description: Antiovulatory activity expressed as ratio of rats ovulated/total rats at a dose of 0.5 microg; 2/12.

Molecules are shown by their SMILES. Converted amounts (≈) assume the structure as drawn.

In the test listed under Rattus norvegicus [1], `CC(=O)N[C@H](Cc1ccc2ccccc2c1)C(=O)N[C@H](Cc1ccc(Cl)cc1)C(=O)N[C@H](Cc1cccnc1)C(=O)N[C@@H](CO)C(=O)N[C@@H](CCCCNC(=O)c1cccnc1)C(=O)N[C@H](CCCCNC(=O)c1cccnc1)C(=O)N[C@@H](CC(C)C)C(=O)N[C@@H](CCCCN)C(=O)N1CCC[C@H]1C(=O)N[C@H](C)C(=O)O` had an ED50 of more than 300 µg/mL. In addition, the Ratio in the test filed under Rattus norvegicus [2] was 9; in the test filed under Rattus norvegicus [3], 0.

For `CC(=O)N[C@H](Cc1ccc2ccccc2c1)C(=O)N[C@H](Cc1ccc(Cl)cc1)C(=O)N[C@H](Cc1cccnc1)C(=O)N[C@@H](CO)C(=O)N[C@@H](CCCCNC(=O)c1cccnc1)C(=O)N[C@H](CCCCNC(=O)c1ccccn1)C(=O)N[C@@H](CC(C)C)C(=O)N[C@@H](CCCCN)C(=O)N1CCC[C@H]1C(=O)N[C@H](C)C(=O)O`, in the test filed under Rattus norvegicus [1], the ED50 was 60 µg/mL (≈ 38.7 µM). Further, the Ratio in the test listed under Rattus norvegicus [4] was 5.

For `CC(=O)N[C@H](Cc1ccc2ccccc2c1)C(=O)N[C@H](Cc1ccc(Cl)cc1)C(=O)N[C@H](Cc1cccnc1)C(=O)N[C@@H](CO)C(=O)N[C@@H](CCCCNC(=O)c1ccccn1)C(=O)N[C@H](CCCCNC(=O)c1cccnc1N)C(=O)N[C@@H](CC(C)C)C(=O)N[C@@H](CCCCNC(C)C)C(=O)N1CCC[C@H]1C(=O)N[C@H](C)C(=O)O`, the Ratio in the test filed under Rattus norvegicus [5] was determined as 2.

With `CC(=O)N[C@H](Cc1ccc2ccccc2c1)C(=O)N[C@H](Cc1ccc(Cl)cc1)C(=O)N[C@H](Cc1cccnc1)C(=O)N[C@@H](CO)C(=O)N[C@@H](CCCCNC(=O)c1ccccn1)C(=O)N[C@H](CCCCNC(=O)c1ccccn1)C(=O)N[C@@H](CC(C)C)C(=O)N[C@@H](CCCCN)C(=O)N1CCC[C@H]1C(=O)N[C@H](C)C(=O)O`, in the test listed under Rattus norvegicus [1], the ED50 was determined as 93 µg/mL (≈ 60 µM). The figures for the Ratio in the test filed under Rattus norvegicus [6] and in the test filed under Rattus norvegicus [7] were 6 and 0, respectively.

Consider `CC(=O)N[C@H](Cc1ccc2ccccc2c1)C(=O)N[C@H](Cc1ccc(Cl)cc1)C(=O)N[C@H](Cc1cccnc1)C(=O)N[C@@H](CO)C(=O)N[C@@H](CCCCNC(=O)c1cnccn1)C(=O)N[C@H](CCCCNC(=O)c1cnccn1)C(=O)N[C@@H](CC(C)C)C(=O)N[C@@H](CCCCN)C(=O)N1CCC[C@H]1C(=O)N[C@H](C)C(=O)O`, for which, in the test listed under Rattus norvegicus [8], the Ratio is reported as 5.

For the compound `CC(=O)N[C@H](Cc1ccc2ccccc2c1)C(=O)N[C@H](Cc1ccc(Cl)cc1)C(=O)N[C@H](Cc1cccnc1)C(=O)N[C@@H](CO)C(=O)N[C@@H](CCCCNC(=O)c1nccnc1N)C(=O)N[C@H](CCCCNC(=O)c1nccnc1N)C(=O)N[C@@H](CC(C)C)C(=O)N[C@@H](CCCCNC(C)C)C(=O)N1CCC[C@H]1C(=O)N[C@H](C)C(=O)O`, the Ratio in the test listed under Rattus norvegicus [9] came to 6.

On to `CC(=O)N[C@H](Cc1ccc2ccccc2c1)C(=O)N[C@H](Cc1ccc(Cl)cc1)C(=O)N[C@H](Cc1cccnc1)C(=O)N[C@@H](CO)C(=O)N[C@@H](CCCCNC(=O)c1ccccn1)C(=O)N[C@H](CCCCNC(=O)c1cccnc1)C(=O)N[C@@H](CC(C)C)C(=O)N[C@@H](CCCCN)C(=O)N1CCC[C@H]1C(=O)N[C@H](C)C(=O)O`, for which the ED50 in the test filed under Rattus norvegicus [1] was determined as 39 µg/mL (≈ 25.2 µM). The Ratio in the test filed under Rattus norvegicus [10] was found to be 0; in the test listed under Rattus norvegicus [11] it was 3.

For the compound `CC(=O)N[C@H](Cc1ccc2ccccc2c1)C(=O)N[C@H](Cc1ccc(Cl)cc1)C(=O)N[C@H](Cc1cccnc1)C(=O)N[C@@H](CO)C(=O)N[C@@H](CCCCNC(=O)c1cnccn1)C(=O)N[C@H](CCCCNC(=O)c1ccccn1)C(=O)N[C@@H](CC(C)C)C(=O)N[C@@H](CCCCN)C(=O)N1CCC[C@H]1C(=O)N[C@H](C)C(=O)O`, the Ratio in the test listed under Rattus norvegicus [12] is on record as 3.

As to `CC(=O)N[C@H](Cc1ccc2ccccc2c1)C(=O)N[C@H](Cc1ccc(Cl)cc1)C(=O)N[C@H](Cc1cccnc1)C(=O)N[C@@H](CO)C(=O)N[C@@H](CCCNC(=O)c1cnccn1)C(=O)N[C@H](CCCNC(=O)c1ccc(N)nc1)C(=O)N[C@@H](CC(C)C)C(=O)N[C@@H](CCCN=C(N)N)C(=O)N1CCC[C@H]1C(=O)N[C@H](C)C(=O)O`, the Ratio in the test listed under Rattus norvegicus [13] amounted to 4.

The compound `CC(=O)N[C@H](Cc1ccc2ccccc2c1)C(=O)N[C@H](Cc1ccc(Cl)cc1)C(=O)N[C@H](Cc1cccnc1)C(=O)N[C@@H](CO)C(=O)N[C@@H](CCCCNC(=O)c1ccccn1)C(=O)N[C@H](CCCCNC(=O)c1ccc(N)nc1)C(=O)N[C@@H](CC(C)C)C(=O)N[C@@H](CCCN=C(N)N)C(=O)N1CCC[C@H]1C(=O)N[C@H](C)C(=O)O` showed an ED50 in the test listed under Rattus norvegicus [1] of 8 µg/mL (≈ 5.02 µM). Further, the Ratio in the test listed under Rattus norvegicus [14] amounted to 2; in the test filed under Rattus norvegicus [15], 2; in the test listed under Rattus norvegicus [16], 0.

Consider `CC(=O)N[C@H](Cc1ccc2ccccc2c1)C(=O)N[C@H](Cc1ccc(Cl)cc1)C(=O)N[C@H](Cc1cccnc1)C(=O)N[C@@H](CO)C(=O)N[C@@H](CCCCNC(=O)c1ccccn1)C(=O)N[C@H](CCCCNC(=O)c1ccc(N)nc1)C(=O)N[C@@H](CC(C)C)C(=O)N[C@@H](CCCCNC(C)C)C(=O)N1CCC[C@H]1C(=O)N[C@H](C)C(=O)O`, for which the ED50 in the test filed under Rattus norvegicus [1] worked out at 96 µg/mL (≈ 59.7 µM). The Ratio came out at 3 in the test filed under Rattus norvegicus [17], 2 in the test listed under Rattus norvegicus [18] and 0 in the test listed under Rattus norvegicus [16].
